“And” between values parts separate entries of the source, which are not always exact repeats. Identical values can stand only once. “Also recorded” adds a separate entry of the source.
Experiments:
[1] = tested on: cardiac arrhythmias; assay: clinical study of cardiac arrhythmias; type: in vivo, patients; set-up: key to Treatment evaluation: Extremely effective (++): An outstanding improvement of subjective symptom and an outstanding improvement in electrocardiogram were observed.; Effective (+): Therapeutic effects were clearly observed.; Slightly effective (±): Subjective symptom was fairly decreased and some improvement in electrocardiogram was observed.; Non-effective (-): Any therapeutic effect was not observed; conditions: oral 30 to 60 mg./day, 10 days to 12 weeks
Description: The active ingredient, 2-acetyl-7-(2-hydroxy-3-isopropylaminopropoxy)benzofuran hydrochloride, contained in the capsules obtained in Example 47 was administrered orally in a dose of 30 to 60 mg./day for a period of 10 days to 12 weeks. The treatment evaluation was determined according to the following standard: […]

[2] = tested on: angina pectoris; assay: clinical study of angina pectoris; type: in vivo, patients; set-up: key: Extremely effective (++): An outstanding improvement of subjective symptom and an outstanding improvement in electrocardiogram were observed.; Effective (+): Therapeutic effects were clearly observed.; Slightly effective (±): Subjective symptom was fairly decreased and some improvement in electrocardiogram was observed.; Non-effective (-): Any therapeutic effect was not observed; conditions: oral 15 to 60 mg./day, 1 to 10 weeks, per patient, hydrochloride
Description: A clinical study relating to angina pectoris was made covering the patients shown in Table V. The active ingredient, 2-acetyl-7-(2-hydroxy-3-isopropylaminopropoxy)benzofuran hydrochloride, contained in the capsules obtained in Example 47 was administered orally in a dose of 15 to 60 mg./day for a period of 1 to 10 weeks.

[3] = tested on: hypertension; assay: clinical study of hypertension; type: in vivo; conditions: four hypertensive patients; oral 60 mg./day, 30 days
Description: To a patient of 68 age who was diagnosed as an essential hypertension was orally administered the active ingredient, 2-acetyl-7-(2-hydroxy-3-isopropyl aminopropoxy)benzofuran hydrochloride, […] As a result, the maximum blood pressure of 210 mmHg and the minimum blood pressure of 88 mmHg before treatment were decreased to 176 mmHg and 76 mmHg after treatment, respectively.

[4] = tested on: tachycardia in hyperthyroidism; assay: clinical study: tachycardia in hyperthyroidism, single administration; type: in vivo, patients; conditions: 14 days
Description: A. A therapeutic effect of the present pharmaceutical composition to tachycardia in hyperthyroidism in case of its signle administration was investigated.
To 12 patients of hyperthyroidism shown in Table VI was orally administered the active ingredient, 2-acetyl-7-(2-hydroxy-3-isopropylaminopropoxy)benzofuran hydrochloride, contained in the capsules obtained in Example 47 in a dose of 30 mg./day (3 times per day) for 14 days. The treatment evaluation was determined according to the following standard:
For reference, a therapeutic effect of an antihyperthyroidism medicament to tachycardia in hyperthyroidism in case of its single administration was investigated.
To 12 patients of hyperthyroidism shown in Table VII was orally administered Mercazol which has been widely employed as an antihyperthyroidism medicament in a dose of 30 mg./day for 14 days.

[5] = tested on: tachycardia in hyperthyroidism; assay: clinical study: tachycardia in hyperthyroidism, combination with antihyperthyroidism medicament; type: in vivo, patients; conditions: in combination with Mercazol, 14 days, per patient
Description: (B) A therapeutic effect of the present pharmaceutical composition in combination with an antihyperthyroidism medicament to tachycardia in hyperthyroidism was investigated.
To six patients of hyperthyroidism shown in Table VIII were orally administered the active ingredient, 2-acetyl-7-(2-hydroxy-3-isopropylaminopropoxy)benzofuran hydrochloride, contained in the capsules obtained in Example 47 and Mercazol in each dose of 30 mg./day (three times per day) for 14 days.

[6] = one value per patient, hydrochloride

In the case of `CC(=O)c1cc2cccc(OCC(O)CNC(C)C)c2o1.Cl` (stereo not shown) [2-acetyl-7-(2-hydroxy-3-isopropylaminopropoxy)benzofuran hydrochloride], the Treatment evaluation ([1]; cardiac arrhythmias, per patient, hydrochloride) is reported as “+ and ± and - and ++”, the “Blood pressure after treatment (first figure, systolic)” value [1, 6] is reported as 96 mmHg and 114 mmHg and 104 mmHg and 130 mmHg and 145 mmHg and 154 mmHg and 165 mmHg and 125 mmHg and 108 mmHg and 135 mmHg and 118 mmHg and the “Blood pressure after treatment (second figure, diastolic)” value [1, 6] is reported as 66 mmHg and 70 mmHg and 62 mmHg and 78 mmHg and 110 mmHg and 75 mmHg and 80 mmHg and 68 mmHg. For the same molecule, the “Heart rate/min. after treatment” value [1, 6] was 60 min⁻¹ and 82 min⁻¹ and 68 min⁻¹ and 72 min⁻¹ and 76 min⁻¹ and 64 min⁻¹ and 100 min⁻¹, the Side effect ([1]; per patient) was “No” and the Treatment evaluation [2] was “± and + and - and ++”. The good therapeutic results [3] was “three patients among four, good therapeutic results were obtained”, the “Pulse rate after treatment, average” value ([4]; 12 patients, oral 30 mg./day, average before treatment 114.5, standard deviation 11.6, in beats/min (unit assumed)) was 90.4 and the Pulse rate difference, average ([4]; 12 patients, oral 30 mg./day, standard deviation printed 1.1) was 23.8 beats/min. The Pulse rate difference ([4]; before minus after, oral 30 mg./day (3 times per day), per patient, hydrochloride, in beats/min (unit assumed)) was 22 and 32 and 14 and 30 and 51 and 28 and 24 and 20 and 8 and 16, the Side effect ([4]; hyperthyroidism, oral 30 mg./day (3 times per day), per patient) was “No” and the Treatment evaluation ([4]; hyperthyroidism, oral 30 mg./day (3 times per day), per patient, hydrochloride) was “++ (Extremely effective (++): The pulse rate before treatment was decreased in a difference of not less than 20 after treatment.); also recorded: + (Effective (+): The pulse rate before treatment was decreased in a difference of 10 to 19 after treatment.)”. For the same molecule, the “Pulse rate after treatment” value ([4]; hyperthyroidism, oral 30 mg./day (3 times per day), per patient, hydrochloride, in beats/min (unit assumed)) was 80 and 108 and 88 and 100 and 77 and 76 and 84, the “Pulse rate after treatment” value ([5]; each oral 30 mg./day (three times per day), hydrochloride, in beats/min (unit assumed)) was 88 and 76 and 78 and 68 and 82 and the Side effect ([5]; each oral 30 mg./day) was “No”. The Treatment evaluation ([5]; each oral 30 mg./day, hydrochloride) was “+ (Effective (+): The pulse rate before treatment was decreased in a difference of 10 to 19 after treatment.); also recorded: ++ (Extremely effective (++): The pulse rate before treatment was decreased in a difference of not less than 20 after treatment.)”.
